Source: publication PMC4303209, “A novel phosphatidylinositol 3-kinase (PI3K) inhibitor directs a potent FOXO-dependent, p53-independent cell cycle arrest phenotype characterized by the differential induction of a subset of FOXO-regulated genes” (Breast Cancer Research : BCR, 2014)

System: MCF-7 breast cancer cells
Assay: Microarray gene expression analysis (Agilent whole human genome 4 x 44K; compound vs DMSO, LIMMA log2 fold change)
Format: cell-based
Details: Apoptosis genes

Oc1cccc(-c2nc(N3CCOCC3)c3oc4ncccc4c3n2)c1 [PI-103]
CTNNA1 log2FC (Gene 1495): 0.421 | CTNNB1 log2FC (Gene 1499): 0.098 | CTSB log2FC (Gene 1508): 0.047 | CTSH log2FC (Gene 1512): -0.000676 | CTSL log2FC (Gene 1514): 0.329 | CX3CR1 log2FC (Gene 1524): 0.187 | CYLD log2FC (Gene 1540): 0.377 | DAB2 log2FC (Gene 1601): -0.118 | DAD1 log2FC (Gene 1603): -0.506 | DAP log2FC (Gene 1611): -0.163 | DAPK1 log2FC (Gene 1612): 0.477 | DAPK3 log2FC (Gene 1613): -0.075 | DBH log2FC (Gene 1621): -0.084 | DCC log2FC (Gene 1630): -0.032 | GADD45A log2FC (Gene 1647): -0.795 | DDIT3 log2FC (Gene 1649): 2.078 | DDX3X log2FC (Gene 1654): -1.134 | DDX5 log2FC (Gene 1655): -1.225 | DFFA log2FC (Gene 1676): -0.256 | DFNA5 log2FC (Gene 1687): -0.030 | DHCR24 log2FC (Gene 1718): -0.730 | DHODH log2FC (Gene 1723): -0.198 | NQO1 log2FC (Gene 1728): -0.052 | DLX1 log2FC (Gene 1745): -0.636 | DNASE1 log2FC (Gene 1773): 0.269 | DNASE1L3 log2FC (Gene 1776): -0.152 | DNASE2 log2FC (Gene 1777): 0.667 | DOCK1 log2FC (Gene 1793): 0.305 | DPEP1 log2FC (Gene 1800): 0.033 | ATN1 log2FC (Gene 1822): -0.173 | DSG1 log2FC (Gene 1828): -0.439 | DSG2 log2FC (Gene 1829): 0.213 | DSG3 log2FC (Gene 1830): -0.053 | TSC22D3 log2FC (Gene 1831): 0.499 | DSP log2FC (Gene 1832): 0.622 | DUSP1 log2FC (Gene 1843): -0.801 | DUSP2 log2FC (Gene 1844): -2.156 | DUSP6 log2FC (Gene 1848): -1.955 | E2F1 log2FC (Gene 1869): -0.119 | E2F2 log2FC (Gene 1870): -0.377 | ECT2 log2FC (Gene 1894): 0.836 | EDN1 log2FC (Gene 1906): 0.126 | EDNRA log2FC (Gene 1909): 0.064 | EDNRB log2FC (Gene 1910): -0.042 | EEF1A2 log2FC (Gene 1917): 0.203 | EFNA5 log2FC (Gene 1946): -0.125 | EGFR log2FC (Gene 1956): 0.479 | EGR1 log2FC (Gene 1958): -2.608 | EGR2 log2FC (Gene 1959): -0.367 | EPHA2 log2FC (Gene 1969): -1.806 | EIF5A log2FC (Gene 1984): -0.261 | ENDOG log2FC (Gene 2021): -0.245 | EP300 log2FC (Gene 2033): -0.124 | EPHA7 log2FC (Gene 2045): -0.025 | CLN8 log2FC (Gene 2055): -0.236 | EPO log2FC (Gene 2056): -0.136 | ERBB3 log2FC (Gene 2065): 0.809 | ERBB4 log2FC (Gene 2066): 0.106 | ERCC2 log2FC (Gene 2068): -0.269 | ERCC3 log2FC (Gene 2071): -0.108 | ERCC5 log2FC (Gene 2073): 0.823 | ERCC6 log2FC (Gene 2074): 0.488 | ERN1 log2FC (Gene 2081): -0.108 | ESR1 log2FC (Gene 2099): -0.048 | ESR2 log2FC (Gene 2100): -0.062 | ETS1 log2FC (Gene 2113): -0.820 | EYA2 log2FC (Gene 2139): -0.257 | F2R log2FC (Gene 2149): 0.377 | F3 log2FC (Gene 2152): -0.177 | PTK2B log2FC (Gene 2185): 0.175 | FCER1G log2FC (Gene 2207): -0.541 | FGD1 log2FC (Gene 2245): -0.255 | FGF4 log2FC (Gene 2249): 0.019 | FGF8 log2FC (Gene 2253): -0.135 | FGF10 log2FC (Gene 2255): -0.00185 | FGFR1 log2FC (Gene 2260): -0.374 | FGFR3 log2FC (Gene 2261): -0.164 | FGFR2 log2FC (Gene 2263): 1.806 | FHIT log2FC (Gene 2272): -0.336 | FHL2 log2FC (Gene 2274): -0.078 | FOXC1 log2FC (Gene 2296): -0.767 | FOXC2 log2FC (Gene 2303): -0.284 | FLT3 log2FC (Gene 2322): 0.120 | FLT4 log2FC (Gene 2324): -0.157 | FNTA log2FC (Gene 2339): 0.629 | FXN log2FC (Gene 2395): -0.514 | FRZB log2FC (Gene 2487): 0.040 | FYN log2FC (Gene 2534): 0.082 | G6PD log2FC (Gene 2539): -0.156 | GABRA5 log2FC (Gene 2558): -0.0016 | GABRB2 log2FC (Gene 2561): -0.080 | GABRB3 log2FC (Gene 2562): -0.025 | GAS1 log2FC (Gene 2619): 0.756 | GAS2 log2FC (Gene 2620): 0.149 | GATA1 log2FC (Gene 2623): -0.018 | GATA3 log2FC (Gene 2625): -0.114 | GDNF log2FC (Gene 2668): -0.175 | B4GALT1 log2FC (Gene 2683): 0.192 | GJA1 log2FC (Gene 2697): -0.613 | GCLC log2FC (Gene 2729): 0.812 | GLI3 log2FC (Gene 2737): 0.540 | GLO1 log2FC (Gene 2739): -0.070 | GML log2FC (Gene 2765): -0.071 | GNB1 log2FC (Gene 2782): -0.085 | GNGT1 log2FC (Gene 2792): -0.037 | GNRH1 log2FC (Gene 2796): 0.097 | SFN log2FC (Gene 2810): -1.150 | GPLD1 log2FC (Gene 2822): -0.157 | CXCR3 log2FC (Gene 2833): -0.474 | GRK5 log2FC (Gene 2869): -0.059 | MKNK2 log2FC (Gene 2872): -0.826 | GPX1 log2FC (Gene 2876): 0.431 | GRID2 log2FC (Gene 2895): -0.052 | GRIK2 log2FC (Gene 2898): 0.091 | GRIK5 log2FC (Gene 2901): -0.101 | GRIN1 log2FC (Gene 2902): -0.444 | GRIN2A log2FC (Gene 2903): -0.041 | NR3C1 log2FC (Gene 2908): 1.042 | GRM4 log2FC (Gene 2914): -0.029 | PDIA3 log2FC (Gene 2923): -0.085 | GSK3A log2FC (Gene 2931): -0.030 | GSK3B log2FC (Gene 2932): -0.455 | GSN log2FC (Gene 2934): 0.174 | GSTP1 log2FC (Gene 2950): 0.117 | MSH6 log2FC (Gene 2956): -0.075 | GZMH log2FC (Gene 2999): -0.148 | GZMA log2FC (Gene 3001): -0.034 | GZMB log2FC (Gene 3002): -0.002 | GZMM log2FC (Gene 3004): -0.381 | H1F0 log2FC (Gene 3005): 0.834 | HCK log2FC (Gene 3055): -0.033 | HDAC1 log2FC (Gene 3065): -0.547 | HDAC2 log2FC (Gene 3066): 0.060 | HELLS log2FC (Gene 3070): 0.140 | NCKAP1L log2FC (Gene 3071): 0.054 | HGF log2FC (Gene 3082): -0.198 | NRG1 log2FC (Gene 3084): -1.164 | HIC1 log2FC (Gene 3090): -0.122 | HIF1A log2FC (Gene 3091): 0.019 | HIP1 log2FC (Gene 3092): -0.167 | HINT1 log2FC (Gene 3094): 0.210 | HK2 log2FC (Gene 3099): -1.428 | HMGB1 log2FC (Gene 3146): 0.343 | HMGB2 log2FC (Gene 3148): 1.070 | HMGCR log2FC (Gene 3156): 0.051 | HMOX1 log2FC (Gene 3162): 1.050 | NR4A1 log2FC (Gene 3164): -0.484 | HOXA5 log2FC (Gene 3202): 0.436 | HOXA13 log2FC (Gene 3209): 0.042 | HRAS log2FC (Gene 3265): -0.758 | HRG log2FC (Gene 3273): -0.015 | PRMT2 log2FC (Gene 3275): 0.289 | HSPA1A log2FC (Gene 3303): -2.361 | HSPA5 log2FC (Gene 3309): -0.793 | HSPB1 log2FC (Gene 3315): -0.135 | HSP90AA1 log2FC (Gene 3320): 0.717 | HSP90AB1 log2FC (Gene 3326): -0.430
